Laboratory results: PubChem BioAssay AID1963983 (Molecular Pharmacology Branch, DTP, NCI, 2024)

Test system: 186277-243-T-J2-PDC multi-cell spheroid viability
Assay: Anticancer human tumor 186277-243-T-J2-PDC patient-derived colon adenocarcinoma cell line growth inhibition [PI3K]
Conditions: for IC50: curve of first compound; for viability, T/C: stronger effect = lower value
How it was run: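 We assembled tumor spheroids that included a stromal compartment of HUVEC and MSCs, then exposed them to targeted agents alone and together with PI3K pathway inhibitors. Concentration series descended by half-log from clinically achievable Cmax levels. Viability served as the endpoint.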
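Also: spheroids exposed to compounds for seven days before viability reading.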
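For viability, T/C in this document: 100% = DMSO vehicle control viability.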

In the case of `CCCS(=O)(=O)Nc1ccc(F)c(C(=O)c2c[nH]c3ncc(-c4ccc(Cl)cc4)cc23)c1F` + Cc1nc(NC(=O)N2CCCC2C(N)=O)sc1-c1ccnc(C(C)(C)C(F)(F)F)c1, the IC50 (second compound 0.0316 µM) is reported as 5420 nM, the IC50 (second compound 0.1 µM) is reported as 5410 nM and the IC50 (second compound 0.316 µM) is reported as 4750 nM. The IC50 (second compound 1 µM) was 4850 nM, the IC50 (second compound 3.16 µM) was 4260 nM and the IC50 (second compound 10 µM) was less than 31.6 nM. It also gave a viability, T/C (second compound 0.0316 µM, first compound 0.0316 µM) of 88.2%, a viability, T/C (second compound 0.0316 µM, first compound 0.1 µM) of 76.7% and a viability, T/C (second compound 0.0316 µM, first compound 0.316 µM) of 88.5%. The viability, T/C (second compound 0.0316 µM, first compound 1 µM) was 89.2%, the viability, T/C (second compound 0.0316 µM, first compound 3.16 µM) was 89% and the viability, T/C (second compound 0.0316 µM, first compound 10 µM) was 8.5%. For the same compound, the viability, T/C (second compound 0.1 µM, first compound 0.0316 µM) was 98.1%, the viability, T/C (second compound 0.1 µM, first compound 0.1 µM) was 105% and the viability, T/C (second compound 0.1 µM, first compound 0.316 µM) was 89.6%. The viability, T/C (second compound 0.1 µM, first compound 1 µM) was 94.9%, the viability, T/C (second compound 0.1 µM, first compound 3.16 µM) was 87.2% and the viability, T/C (second compound 0.1 µM, first compound 10 µM) was 7.3%. The viability, T/C (second compound 0.316 µM, first compound 0.0316 µM) was 113%, the viability, T/C (second compound 0.316 µM, first compound 0.1 µM) was 103% and the viability, T/C (second compound 0.316 µM, first compound 0.316 µM) was 89.2%. It also gave a viability, T/C (second compound 0.316 µM, first compound 1 µM) of 88%, a viability, T/C (second compound 0.316 µM, first compound 3.16 µM) of 78.7% and a viability, T/C (second compound 0.316 µM, first compound 10 µM) of 7.15%. It also gave a viability, T/C (second compound 1 µM, first compound 0.0316 µM) of 95.8%, a viability, T/C (second compound 1 µM, first compound 0.1 µM) of 104% and a viability, T/C (second compound 1 µM, first compound 0.316 µM) of 98.5%. It also gave a viability, T/C (second compound 1 µM, first compound 1 µM) of 91.9%, a viability, T/C (second compound 1 µM, first compound 3.16 µM) of 76.5% and a viability, T/C (second compound 1 µM, first compound 10 µM) of 6.14%. The viability, T/C (second compound 3.16 µM, first compound 0.0316 µM) was 67.6%, the viability, T/C (second compound 3.16 µM, first compound 0.1 µM) was 81.6% and the viability, T/C (second compound 3.16 µM, first compound 0.316 µM) was 81.1%. It also gave a viability, T/C (second compound 3.16 µM, first compound 1 µM) of 82%, a viability, T/C (second compound 3.16 µM, first compound 3.16 µM) of 65.6% and a viability, T/C (second compound 3.16 µM, first compound 10 µM) of 5.53%. For the same compound, the viability, T/C (second compound 10 µM, first compound 0.0316 µM) was 15.2%, the viability, T/C (second compound 10 µM, first compound 0.1 µM) was 17.1% and the viability, T/C (second compound 10 µM, first compound 0.316 µM) was 26.6%. It also gave a viability, T/C (second compound 10 µM, first compound 1 µM) of 35.3%, a viability, T/C (second compound 10 µM, first compound 3.16 µM) of 38.8% and a viability, T/C (second compound 10 µM, first compound 10 µM) of 2.29%.
`Cn1cnc2c(F)c(Nc3ccc(Br)cc3Cl)c(C(=O)NOCCO)cc21` + CC(Nc1ccc2c(c1)OCCn1cc(N3C(=O)OCC3C(F)F)nc1-2)C(N)=O gave an IC50 (second compound 0.00316 µM) of 115 nM, an IC50 (second compound 0.01 µM) of 77.8 nM and an IC50 (second compound 0.0316 µM) of 39.4 nM. It also gave an IC50 (second compound 0.1 µM) of 11.9 nM, an IC50 (second compound 0.316 µM) of less than 9.49 nM and an IC50 (second compound 1 µM) of less than 9.49 nM. It also gave a viability, T/C (second compound 0.00316 µM, first compound 0.00949 µM) of 97.2%, a viability, T/C (second compound 0.00316 µM, first compound 0.03 µM) of 83% and a viability, T/C (second compound 0.00316 µM, first compound 0.0949 µM) of 47.7%. For the same compound, the viability, T/C (second compound 0.00316 µM, first compound 0.3 µM) was 36.6%, the viability, T/C (second compound 0.00316 µM, first compound 0.949 µM) was 14.2% and the viability, T/C (second compound 0.00316 µM, first compound 3 µM) was 8.95%. The viability, T/C (second compound 0.01 µM, first compound 0.00949 µM) was 101%, the viability, T/C (second compound 0.01 µM, first compound 0.03 µM) was 79.8% and the viability, T/C (second compound 0.01 µM, first compound 0.0949 µM) was 40.4%. For the same compound, the viability, T/C (second compound 0.01 µM, first compound 0.3 µM) was 26.5%, the viability, T/C (second compound 0.01 µM, first compound 0.949 µM) was 15.9% and the viability, T/C (second compound 0.01 µM, first compound 3 µM) was 9.46%. It also gave a viability, T/C (second compound 0.0316 µM, first compound 0.00949 µM) of 94%, a viability, T/C (second compound 0.0316 µM, first compound 0.03 µM) of 54.5% and a viability, T/C (second compound 0.0316 µM, first compound 0.0949 µM) of 32.8%. It also gave a viability, T/C (second compound 0.0316 µM, first compound 0.3 µM) of 19.2%, a viability, T/C (second compound 0.0316 µM, first compound 0.949 µM) of 10.6% and a viability, T/C (second compound 0.0316 µM, first compound 3 µM) of 6.13%. It also gave a viability, T/C (second compound 0.1 µM, first compound 0.00949 µM) of 53.9%, a viability, T/C (second compound 0.1 µM, first compound 0.03 µM) of 33.8% and a viability, T/C (second compound 0.1 µM, first compound 0.0949 µM) of 22.4%. It also gave a viability, T/C (second compound 0.1 µM, first compound 0.3 µM) of 8.1%, a viability, T/C (second compound 0.1 µM, first compound 0.949 µM) of 7.55% and a viability, T/C (second compound 0.1 µM, first compound 3 µM) of 3.21%. It also gave a viability, T/C (second compound 0.316 µM, first compound 0.00949 µM) of 30.7%, a viability, T/C (second compound 0.316 µM, first compound 0.03 µM) of 16.4% and a viability, T/C (second compound 0.316 µM, first compound 0.0949 µM) of 9.95%. For the same compound, the viability, T/C (second compound 0.316 µM, first compound 0.3 µM) was 4.19%, the viability, T/C (second compound 0.316 µM, first compound 0.949 µM) was 4.43% and the viability, T/C (second compound 0.316 µM, first compound 3 µM) was 3.42%. It also gave a viability, T/C (second compound 1 µM, first compound 0.00949 µM) of 20.1%, a viability, T/C (second compound 1 µM, first compound 0.03 µM) of 10.1% and a viability, T/C (second compound 1 µM, first compound 0.0949 µM) of 4.65%. For the same compound, the viability, T/C (second compound 1 µM, first compound 0.3 µM) was 3.78%, the viability, T/C (second compound 1 µM, first compound 0.949 µM) was 3.32% and the viability, T/C (second compound 1 µM, first compound 3 µM) was 0.47%.
